Earlier results as cited in US20230321005A1, “PHYTONADIONE COMPOSITIONS” (CIPLA LIMITED, priority 2020, published 2023).

Assays:
[1] = forms multiple peroxide and epoxy impurities

Solubility in aqueous solvents: insoluble
Susceptibility to oxidative and photolytic degradation [1]: highly susceptible
Structure (SMILES): CC1=C(C/C=C(\C)CCC[C@H](C)CCC[C@H](C)CCCC(C)C)C(=O)c2ccccc2C1=O [Phytonadione, 2 - methyl - 3 - phytyl - 1, 4 - naphthoquinone]
